# Source: PMC4819940 (Cancer Chemotherapy and Pharmacology, 2016)
# Where two headings read alike, the source gives them in different places.
# Key:
# [1] = tested on: Japanese patients with advanced solid malignancies
# Description: This was a phase 1, open-label, multicenter, dose escalation study. […] All doses were required to be taken in a fasted state (no caloric intake from 2 h before dosing to 1 h after dosing).
# All evaluations during the bid dosing regimen were conducted in 21-day assessment cycles. Patients were enrolled to ensure a minimum of three and a maximum of six evaluable patients per cohort. Dose escalation and de-escalation were determined by the number of dose-limiting toxicities (DLTs; defined as any toxicity related to study drug as assessed by the investigator and not attributable to the disease under investigation) in a cohort. […] If one patient in a group of […] evaluable patients experienced a DLT, the cohort was expanded to include six evaluable patients. […] If ≥2 patients in a group of up to six evaluable patients experienced a DLT, irrespective of the number of patients enrolled, the dose was considered not tolerated and recruitment to the cohort and dose escalation was ceased. De-escalation to a lower intermediary dose could be considered in order to better define the MTD.
# Based on emerging clinical data from the continuous dosing regimen of this study and data from the Western Study 1 (D3610C00001, NCT01226316), which was running in parallel with the Japanese study, an intermittent dosing regimen was also evaluated in Japanese patients and with a starting dose of 480 mg bid and a 4/3 dosing schedule.
# Safety and tolerability were assessed in terms of adverse events (AEs), serious adverse events (SAEs), deaths, laboratory data, vital signs, electrocardiogram (ECG), assessment of glucose metabolism, and physical examination. AEs were graded according to the Common Terminology Criteria for Adverse Events (CTCAE) version 4.0. Any AE occurring after the first dose of study treatment and within 30 days of the last dose of study treatment was included in the AE summaries.
# [2] = Plasma pharmacokinetics of AZD5363 after a single dose and multiple doses; type: in vivo, human; conditions: for AUC / Cmax / Vd/F / C ss,max: geometric mean (CV%); for Tmax / t ss,max / t half: median (range); for Vd/F: read-out: V ss/F
# Excerpt: […] area under the plasma concentration–time curve (AUC), maximum plasma (peak) drug concentration (Cmax), time to reach Cmax (tmax), apparent plasma clearance (CL/F), and oral volume of distribution at steady state (Vss/F).
# [3] = human, plasma, oral, single dose, 80 mg bid continuous cohort, n=3
# [4] = human, plasma, oral, single dose, 240 mg bid continuous cohort, n=7
# [5] = human, plasma, oral, single dose, 320 mg bid continuous cohort, n=6
# [6] = human, plasma, oral, single dose, 360 mg bid intermittent 4/3 cohort, n=8
# [7] = human, plasma, oral, single dose, 400 mg bid continuous cohort, n=5
# [8] = human, plasma, oral, single dose, 480 mg bid intermittent 4/3 cohort, n=6
# [9] = human, plasma, oral, single dose, 640 mg bid intermittent 2/5 cohort, n=6
# [10] = human, plasma, oral, single dose, Total, n=41
# [11] = multiple doses, 80 mg bid continuous, n=3
# [12] = multiple doses, 240 mg bid continuous, n=7
# [13] = multiple doses, 320 mg bid continuous, n=4
# [14] = multiple doses, 360 mg bid intermittent 4/3, n=7
# [15] = multiple doses, 400 mg bid continuous, n=4
# [16] = multiple doses, 480 mg bid intermittent 4/3, n=6
# [17] = multiple doses, 640 mg bid intermittent 2/5, n=6
smiles,measurement,setting,value
NC1(C(=O)N[C@@H](CCO)c2ccc(Cl)cc2)CCN(c2ncnc3[nH]ccc23)CC1 [AZD5363],AE with outcome of death: Any,"[1]; 80 mg bid continuous, n=3",0 (0.0) number (%) of patients
same,AE with outcome of death: Any,"[1]; 240 mg bid continuous, n=7",0 (0.0) number (%) of patients
same,AE with outcome of death: Any,"[1]; 320 mg bid continuous, n=6",0 (0.0) number (%) of patients
same,AE with outcome of death: Any,"[1]; 360 mg bid intermittent 4/3, n=8",0 (0.0) number (%) of patients
same,AE with outcome of death: Any,"[1]; 400 mg bid continuous, n=5",0 (0.0) number (%) of patients
same,AE with outcome of death: Any,"[1]; 480 mg bid intermittent 4/3, n=6",0 (0.0) number (%) of patients
same,AE with outcome of death: Any,"[1]; 640 mg bid intermittent 2/5, n=6",0 (0.0) number (%) of patients
same,AE with outcome of death: Any,"[1]; Total, n=41",0 (0.0) number (%) of patients
same,MTD,[1]; either of the intermittent dosing schedules,not reached
same,AEs of CTCAE grade ≥3: Any,"[1]; human, in vivo",26 (63.4) number (%) of patients
same,AEs of CTCAE grade ≥3: Diarrhea,"[1]; human, in vivo",7 (17.1) number (%) of patients
same,AEs of CTCAE grade ≥3: Hyperglycemia,"[1]; human, in vivo",16 (39.0) number (%) of patients
same,AEs of CTCAE grade ≥3: Lymphocyte count decreased,"[1]; human, in vivo",3 (7.3) number (%) of patients
same,AEs of CTCAE grade ≥3: Neutrophil count decreased,"[1]; human, in vivo",4 (9.8) number (%) of patients
same,AEs: Blood creatinine increased,"[1]; human, in vivo",14 (34.1) number (%) of patients
same,AEs: Decreased appetite,"[1]; human, in vivo",20 (48.8) number (%) of patients
same,AEs: Diarrhea,"[1]; human, in vivo",32 (78.0) number (%) of patients
same,AEs: Hyperglycemia,"[1]; human, in vivo",28 (68.3) number (%) of patients
same,AEs: Maculopapular rash,"[1]; human, in vivo",23 (56.1) number (%) of patients
same,AEs: Nausea,"[1]; human, in vivo",23 (56.1) number (%) of patients
same,AEs: Proteinuria,"[1]; human, in vivo",16 (39.0) number (%) of patients
same,AEs: Pyrexia,"[1]; human, in vivo",20 (48.8) number (%) of patients
same,AEs: Stomatitis,"[1]; human, in vivo",17 (41.5) number (%) of patients
same,AEs: White blood cell count decreased,"[1]; human, in vivo",13 (31.7) number (%) of patients
same,Adverse events (AEs): Any,"[1]; human, in vivo",40 (97.6) number (%) of patients
same,SAE: Any,"[1]; human, in vivo",3 (7.3) number (%) of patients
same,patients who experienced an AE of CTCAE grade ≥3,"[1]; human, in vivo",63.4%
same,patients who experienced at least one AE,"[1]; human, in vivo",97.6%
same,patients with AE diarrhea,"[1]; human, in vivo",78.0%
same,patients with AE hyperglycemia,"[1]; human, in vivo",68.3%
same,patients with AE maculopapular rash,"[1]; human, in vivo",56.1%
same,patients with AE nausea,"[1]; human, in vivo",56.1%
same,patients with AEs leading to dose interruption,"[1]; human, in vivo",39.0%
same,patients with CTCAE grade ≥3 diarrhea,"[1]; human, in vivo",17.1%
same,patients with CTCAE grade ≥3 hyperglycemia,"[1]; human, in vivo",39.0%
same,patients with a grade ≥3 AE considered to be treatment related,"[1]; human, in vivo",58.5%
same,patients with discontinuation due to an AE,"[1]; human, in vivo",12.2%
same,DLTs reported,[1]; in vivo,No DLTs
same,patients who experienced DLTs,[1]; in vivo,five
same,patients who experienced an SAE,[1]; in vivo,Three
same,deaths related to AEs,"[1]; overall, all cohorts",no deaths
same,AUC,"[2]; human, plasma, oral, 80 mg, multiple doses, 80 mg bid continuous, n=3, read-out: AUCss",1520 ng·h/mL
same,AUC,"[2]; human, plasma, oral, 80 mg, single dose, 80 mg bid continuous cohort, n=3, read-out: AUC",1260 ng·h/mL
same,AUC,"[2]; human, plasma, oral, 240 mg, multiple doses, 240 mg bid continuous, n=7, read-out: AUCss",4840 ng·h/mL
same,AUC,"[2]; human, plasma, oral, 240 mg, single dose, 240 mg bid continuous cohort, n=7, read-out: AUC",3290 ng·h/mL
same,AUC,"[2]; human, plasma, oral, 320 mg, multiple doses, 320 mg bid continuous, n=4, read-out: AUCss",5770 ng·h/mL
same,AUC,"[2]; human, plasma, oral, 320 mg, single dose, 320 mg bid continuous cohort, n=6, read-out: AUC",7110 ng·h/mL
same,AUC,"[2]; human, plasma, oral, 360 mg, multiple doses, 360 mg bid intermittent 4/3, n=7, read-out: AUCss",5870 ng·h/mL
same,AUC,"[2]; human, plasma, oral, 360 mg, single dose, 360 mg bid intermittent 4/3 cohort, n=8, read-out: AUC",4770 ng·h/mL
same,AUC,"[2]; human, plasma, oral, 400 mg, multiple doses, 400 mg bid continuous, n=4, read-out: AUCss",9670 ng·h/mL
same,AUC,"[2]; human, plasma, oral, 400 mg, single dose, 400 mg bid continuous cohort, n=5, read-out: AUC",4670 ng·h/mL
same,AUC,"[2]; human, plasma, oral, 480 mg, multiple doses, 480 mg bid intermittent 4/3, n=6, read-out: AUCss",10900 ng·h/mL
same,AUC,"[2]; human, plasma, oral, 480 mg, single dose, 480 mg bid intermittent 4/3 cohort, n=6, read-out: AUC",7210 ng·h/mL
same,AUC,"[2]; human, plasma, oral, 640 mg, multiple doses, 640 mg bid intermittent 2/5, n=6, read-out: AUCss",14200 ng·h/mL
same,AUC,"[2]; human, plasma, oral, 640 mg, single dose, 640 mg bid intermittent 2/5 cohort, n=6, read-out: AUC",11400 ng·h/mL
same,AUC,"[2]; human, plasma, oral, multiple doses, Total, n=37, read-out: AUCss",6820 ng·h/mL
same,Tmax,"[2]; human, plasma, oral, single dose, all cohorts, read-out: tmax",1.98 h
same,Cmax,[2]; [3],217 ng/mL
same,Vd/F,[2]; [3],715 L
same,Tmax,"[2]; human, plasma, oral, single dose, 80 mg bid continuous cohort, n=3, read-out: t max",2 h
same,Cmax,[2]; [4],628 ng/mL
same,Vd/F,[2]; [4],682 L
same,Tmax,"[2]; human, plasma, oral, single dose, 240 mg bid continuous cohort, n=7, read-out: t max",1.9 h
same,Cmax,[2]; [5],1580 ng/mL
same,Vd/F,[2]; [5],370 L
same,Tmax,"[2]; human, plasma, oral, single dose, 320 mg bid continuous cohort, n=6, read-out: t max",1.98 h
same,Cmax,[2]; [6],1010 ng/mL
same,Vd/F,[2]; [6],681 L
same,Tmax,"[2]; human, plasma, oral, single dose, 360 mg bid intermittent 4/3 cohort, n=8, read-out: t max",1.99 h
same,Cmax,[2]; [7],1060 ng/mL
same,Vd/F,[2]; [7],777 L
same,Tmax,"[2]; human, plasma, oral, single dose, 400 mg bid continuous cohort, n=5, read-out: t max",1.97 h
same,Cmax,[2]; [8],1910 ng/mL
same,Vd/F,[2]; [8],502 L
same,Tmax,"[2]; human, plasma, oral, single dose, 480 mg bid intermittent 4/3 cohort, n=6, read-out: t max",1.02 h
same,Cmax,[2]; [9],2100 ng/mL
same,Vd/F,[2]; [9],587 L
same,Tmax,"[2]; human, plasma, oral, single dose, 640 mg bid intermittent 2/5 cohort, n=6, read-out: t max",2.02 h
same,Cmax,[2]; [10],1090 ng/mL
same,AUC,"[2]; human, plasma, oral, single dose, Total, n=41, read-out: AUC",5180 ng·h/mL
same,Vd/F,[2]; [10],595 L
same,half-life,"[2]; human, plasma, single oral doses",~600 min
same,"C ss,max",[2]; [11],318.3 (128.4) ng/mL
same,"t ss,max",[2]; [11],1 (0.98‒1.97) hours
same,"C ss,max",[2]; [12],874.4 (89.7) ng/mL
same,"t ss,max",[2]; [12],1.98 (0.97‒3.9) hours
same,"C ss,max",[2]; [13],1222 (53.7) ng/mL
same,"t ss,max",[2]; [13],1.465 (0.92‒2.12) hours
same,"C ss,max",[2]; [14],1366 (64.9) ng/mL
same,"t ss,max",[2]; [14],0.98 (0.5‒2) hours
same,"C ss,max",[2]; [15],2094 (56.6) ng/mL
same,"t ss,max",[2]; [15],2 (0.93‒2) hours
same,"C ss,max",[2]; [16],2670 (36.7) ng/mL
same,"t ss,max",[2]; [16],1.99 (1‒2.05) hours
same,"C ss,max",[2]; [17],2618 (20.0) ng/mL
same,"t ss,max",[2]; [17],2.01 (2‒3.97) hours
same,"C ss,max","[2]; multiple doses, Total, n=37",1430 (96.6) ng/mL
same,"t ss,max","[2]; multiple doses, Total, n=37",1.98 (0.5‒3.97) hours
same,"t ss,max","[2]; multiple dosing, all cohorts",1.98 (0.50–3.97) hours
same,dose proportionality of exposure,"[2]; single and multiple doses, 80- to 640-mg doses",generally dose proportional
same,t half,"[2]; single dose, 80 mg bid continuous cohort, n=3",11.8 (8.5‒12.2) hours
same,t half,"[2]; single dose, 240 mg bid continuous cohort, n=7",10.2 (8.2‒10.9) hours
same,t half,"[2]; single dose, 320 mg bid continuous cohort, n=6",9.7 (7.3‒10.6) hours
same,t half,"[2]; single dose, 360 mg bid intermittent 4/3 cohort, n=8",9.7 (5.3‒11.1) hours
same,t half,"[2]; single dose, 400 mg bid continuous cohort, n=5",9.6 (9.0‒13.0) hours
same,t half,"[2]; single dose, 480 mg bid intermittent 4/3 cohort, n=6",9.3 (8.1‒11.6) hours
same,t half,"[2]; single dose, 640 mg bid intermittent 2/5 cohort, n=6",10.1 (9.4‒13.7) hours
same,Tmax,"[2]; single dose, Total, n=41",1.98 (0.87‒4.02) hours
same,t half,"[2]; single dose, Total, n=41",9.9 (5.3‒13.7) hours
same,duration of distribution phase following Cmax,"[2]; single oral doses, generally lasting up to",6 to 8 h
